Assay results taken from patent publication US4694008A, “Chemical compounds” (Smith Kline & French Laboratories Limited, priority 1984, dated 1987).

Legend:
[1] = molecular target: T1, histamine H2 -receptors (Rattus norvegicus, UniProt P25102); assay: inhibition of histamine-stimulated secretion of gastric acid, lumen-perfused stomachs of rats anaesthetised with urethane; type: in vivo; conditions: iv, read-out: ED50 values in the lumen-perfused rat test
T1 construct: histamine-stimulated secretion of gastric acid from the lumen-perfused stomachs of rats anaesthetised with urethane; from tissue; host or cells: stomach of the anaesthetised rat (in vivo, lumen-perfused)
Text: These are actions of histamine which, according to Ash and Schild, Brit. J. Pharmac. Chemother. 27 247 (1966), are not mediated by histamine H1 -receptors.
(§1) The measurement of inhibition of histamine-stimulated secretion of gastric acid from the lumen-perfused stomachs of rats anaesthetised with urethane, and the measurement of inhibition of histamine-induced tachycardia in the isolated guinea pig right atrium, are detailed in U.S. Pat. No. 4,385,058.

[2] = tested on: histamine H2 -receptors; assay: inhibition of histamine-induced tachycardia in the isolated guinea pig right atrium
Text: as §1

T1 sequence (P25102 whole entry, the tested form may be a part): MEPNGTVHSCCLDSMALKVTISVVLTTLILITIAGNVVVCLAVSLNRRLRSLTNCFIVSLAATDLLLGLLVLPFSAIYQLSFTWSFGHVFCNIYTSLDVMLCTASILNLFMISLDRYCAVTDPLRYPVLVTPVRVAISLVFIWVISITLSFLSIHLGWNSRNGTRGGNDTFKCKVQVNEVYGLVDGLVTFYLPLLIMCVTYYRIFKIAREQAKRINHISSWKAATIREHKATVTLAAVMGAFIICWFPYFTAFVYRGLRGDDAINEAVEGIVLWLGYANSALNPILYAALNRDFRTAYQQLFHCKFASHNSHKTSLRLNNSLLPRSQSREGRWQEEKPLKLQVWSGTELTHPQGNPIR

Structure (SMILES): O=c1[nH]c(CCCOc2cccc(CN3CCCCC3)c2)ncc1OCc1ccccc1 [Example 1, 2-[3-[3-(Piperidinomethyl)phenoxy]propyl]-5-benzyloxypyrimidin-4-one]
- ED50 [1]: < 0.1 µmol/kg
- pA2 values in the guinea pig atrium test [2]: more than seven

Structure (SMILES): COc1cnc(NCCCOc2cccc(CN3CCCCC3)c2)[nH]c1=O [Example 5, 2-[3-[3-(Piperidinomethyl)phenoxy]propylamino]-5-methoxypyrimidin-4-one]
- ED50 [1]: < 0.1 µmol/kg
- pA2 values in the guinea pig atrium test [2]: more than seven
